Laboratory results taken from US6352958B1, “Cycloimido-substituted benzofused heterocyclic herbicides” (FMC Corporation, priority 1997, dated 2002).

Experiments:
Format in all cases: in vivo
[1] = test system: green foxtail (Setaria viridis); assay: Preemergence herbicidal activity, green foxtail; details: Rate of Application 0.3 Kg/Ha, examined after 12-17 days
[2] = test system: soybean (Glycine max var. Winchester); assay: Preemergence herbicidal activity, soybean; details: Rate of Application 0.3 Kg/Ha, examined after 12-17 days
[3] = test system: soybean (Glycine max var. Winchester); assay: Postemergence herbicidal activity, soybean; details: rate of application 0.3 Kg/Ha, rated after 12-17 days
[4] = test system: blackgrass (Aloepecurus myosuroides); assay: Preemergence herbicidal activity, blackgrass; details: Rate of Application 0.3 Kg/Ha, examined after 12-17 days
[5] = test system: green foxtail (Setaria viridis); assay: Postemergence herbicidal activity, green foxtail; details: rate of application 0.3 Kg/Ha, rated after 12-17 days
[6] = test system: wheat (Triticum aestivum var. Lew); assay: Preemergence herbicidal activity, wheat; details: Rate of Application 0.3 Kg/Ha, examined after 12-17 days
[7] = test system: morningglory (Ipomea lacunosa or Ipomea hederacea); assay: Postemergence herbicidal activity, morningglory; details: rate of application 0.3 Kg/Ha, rated after 12-17 days
[8] = test system: field corn (Zea mays var. Pioneer 3732); assay: Preemergence herbicidal activity, corn; details: Rate of Application 0.3 Kg/Ha, examined after 12-17 days
[9] = test system: common chickweed (Stellaria media); assay: Preemergence herbicidal activity, chickweed; details: Rate of Application 0.3 Kg/Ha, examined after 12-17 days
[10] = test system: blackgrass (Aloepecurus myosuroides); assay: Postemergence herbicidal activity, blackgrass; details: rate of application 0.3 Kg/Ha, rated after 12-17 days
[11] = test system: field corn (Zea mays var. Pioneer 3732); assay: Postemergence herbicidal activity, corn; details: rate of application 0.3 Kg/Ha, rated after 12-17 days
[12] = test system: velvetleaf (Abutilon theophrasti); assay: Postemergence herbicidal activity, velvetleaf; details: rate of application 0.3 Kg/Ha, rated after 12-17 days
[13] = test system: Johnsongrass (Sorghum halepense); assay: Postemergence herbicidal activity, johnsongrass; details: rate of application 0.3 Kg/Ha, rated after 12-17 days
[14] = test system: wheat (Triticum aestivum var. Lew); assay: Postemergence herbicidal activity, wheat; details: rate of application 0.3 Kg/Ha, rated after 12-17 days
[15] = test system: common chickweed (Stellaria media); assay: Postemergence herbicidal activity, chickweed; details: rate of application 0.3 Kg/Ha, rated after 12-17 days
[16] = test system: morningglory (Ipomea lacunosa or Ipomea hederacea); assay: Preemergence herbicidal activity, morningglory; details: Rate of Application 0.3 Kg/Ha, examined after 12-17 days
[17] = test system: velvetleaf (Abutilon theophrasti); assay: Preemergence herbicidal activity, velvetleaf; details: Rate of Application 0.3 Kg/Ha, examined after 12-17 days
[18] = test system: Johnsongrass (Sorghum halepense); assay: Preemergence herbicidal activity, johnsongrass; details: Rate of Application 0.3 Kg/Ha, examined after 12-17 days
[19] = test system: common cocklebur (Xanthium strumarium L.); assay: Preemergence herbicidal activity, cocklebur; details: Rate of Application 0.3 Kg/Ha, examined after 12-17 days
[20] = test system: common cocklebur (Xanthium strumarium L.); assay: Postemergence herbicidal activity, cocklebur; details: rate of application 0.3 Kg/Ha, rated after 12-17 days

Row | SMILES | PREEMERGENCE HERBICIDAL ACTIVITY (% CONTROL) SETVI [1] [%] | PREEMERGENCE HERBICIDAL ACTIVITY (% CONTROL) SOY [2] [%] | Postemergence herbicidal activity (% control) SOY [3] [%] | PREEMERGENCE HERBICIDAL ACTIVITY (% CONTROL) ALOMY [4] [%] | Postemergence herbicidal activity (% control) SETVI [5] [%] | PREEMERGENCE HERBICIDAL ACTIVITY (% CONTROL) WHT [6] [%] | Postemergence herbicidal activity (% control) IPOSS [7] [%] | PREEMERGENCE HERBICIDAL ACTIVITY (% CONTROL) CRN [8] [%] | PREEMERGENCE HERBICIDAL ACTIVITY (% CONTROL) STEME [9] [%] | Postemergence herbicidal activity (% control) ALOMY [10] [%] | Postemergence herbicidal activity (% control) CRN [11] [%] | Postemergence herbicidal activity (% control) ABUTH [12] [%] | Postemergence herbicidal activity (% control) SORHA [13] [%] | Postemergence herbicidal activity (% control) WHT [14] [%] | Postemergence herbicidal activity (% control) STEME [15] [%] | PREEMERGENCE HERBICIDAL ACTIVITY (% CONTROL) IPOSS [16] [%] | PREEMERGENCE HERBICIDAL ACTIVITY (% CONTROL) ABUTH [17] [%] | PREEMERGENCE HERBICIDAL ACTIVITY (% CONTROL) SORHA [18] [%] | PREEMERGENCE HERBICIDAL ACTIVITY (% CONTROL) XANPE [19] [%] | Postemergence herbicidal activity (% control) XANPE [20] [%]
1 | COCOC(C)(C)c1cc2c(Cl)cc(F)c(-n3c(=O)cc(C(F)(F)F)n(C)c3=O)c2o1 [Compound 252] | 100 | 100 | 95 | 100 | 100 | 100 | 100 | 100 | 100 | 100 | 100 | 100 | 100 | 90 | 100 | 100 | 100 | 100 |  | 
2 | Cc1cc2c(Cl)cc(F)c(-n3c(=O)cc(C(F)(F)F)n(C)c3=O)c2o1 [Compound 222] | 100 | 100 | 100 |  | 100 | 70 | 100 | 90 | 100 | 100 | 90 | 100 | 100 | 70 | 100 | 100 | 100 | 100 | 100 | 100
3 | CCOC(=O)c1cc2c(N3C(=O)C4=C(CCCC4)C3=O)ccc(Cl)c2[nH]1 [Compound 595, 3-(7-CHLORO-2-ETHOXYCARBONYLINDOL4-YL)-4,5,6,7-TETRAHYDRO-1H-ISOINDOLE-1,3(2H)-DIONE] | 0 | 10 | 50 |  | 20 | 0 | 40 | 0 | 10 | 10 | 60 | 30 | 20 | 10 | 0 | 50 | 60 | 40 | 20 | 20
4 | CON=Cc1cc2c(Cl)ccc(-n3c(=O)cc(C(F)(F)F)n(C)c3=O)c2o1 [Compound 259] | 100 | 70 | 80 |  | 80 | 40 | 90 | 80 | 100 | 55 | 75 | 100 | 70 | 35 | 30 | 70 | 100 | 95 | 55 | 70
5 | Cn1c(C(F)(F)F)cc(=O)n(-c2ccc(Cl)c3cc(C=NO)oc23)c1=O [Compound 258] | 40 | 30 | 80 |  | 60 | 30 | 70 | 75 | 0 | 30 | 60 | 80 | 50 | 30 | 5 | 60 | 100 | 40 | 60 | 50
6 | Cc1cc2c(Cl)ccc(-n3c(=O)cc(C(F)(F)F)n(C)c3=O)c2o1 [Compound 221] | 100 | 70 | 95 |  | 70 | 60 | 100 | 85 | 80 | 40 | 60 | 100 | 70 | 50 | 100 | 100 | 100 | 95 |  | 60
7 | CNC(=O)c1cc2c(Cl)ccc(-n3c(=O)cc(C(F)(F)F)n(C)c3=O)c2o1 [Compound 270] | 100 | 70 | 70 | 65 | 50 | 70 | 60 | 90 |  | 50 | 50 | 100 | 50 | 40 | 40 | 100 | 100 | 100 | 60 | 
